In patent publication US9815854B2, “3-(3H-imidazo[4,5-B]pyridin-2-yl)-1H-pyrazolo[3,4-C]pyridine and therapeutic uses thereof” (Samumed, LLC, priority 2014, dated 2017) one finds EC50 and IC50 data, which are given here for 22 molecules.

Assay [1] concerns primary human fibroblasts derived from IPF patients (LL29 cells). The assay can be described thus: Inhibition of the fibrotic process in TGF-β1-treated primary human fibroblasts from IPF patients (αSMA staining). The assay is classed as cell-based. The note with it: Fibroblast, 96 h, TGF-β1 20 ng/mL, 4 days, read-out: Inhibition of fibrosis EC50. A digest of the protocol: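 IPF-derived LL29 lung fibroblasts, 1,500 per well in F12 with 1% FBS, treated with compound (10 μM to […], 0.1% DMSO) and TGF-β1 20 ng/mL for 4 days at 37 °C. αSMA-positive live cells imaged and normalised to TGF-β1 controls; EC50 by nonlinear regression over triplicate wells.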

Assay [2] deals with Wnt activity (Sp5-Luc reporter, TCF/LEF binding sites) in SW480 colon carcinoma cells. The assay is described as follows: Sp5-Luc Wnt reporter gene screening assay in SW480 colon carcinoma cells. The format is cell-based, human. Conditions: Homo sapiens. A digest of the protocol: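 SW480 cells stably transduced with a lentiviral luciferase reporter driven by a Sp5 promoter with eight TCF/LEF sites were plated at 10,000/well in 10% FCS medium. Luminescence was normalised to DMSO and IC50 derived by four-parameter fit.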
(In general: A reporter such as luciferase makes a cellular process visible.)

A value given as a limit tells only on which side of the number the result lay.

What is called EC50 is the concentration at which the effect is half-maximal. In general, IC50 refers to the concentration needed to halve the response being measured. Low readings indicate greater potency in that assay, high ones weaker potency in that assay. As for `c1ccc(CNCc2cncc(-c3cc4c(-c5nc6c(-c7ccsc7)ccnc6[nH]5)n[nH]c4cn3)c2)cc1` [Compound 283, N-benzyl-1-(5-(3-(7-(thiophen-3-yl)-3H-imidazo[4,5-b]pyridin-2-yl)-1H-pyrazolopyridin-5-yl)pyridin-3-yl) methenamine], the EC50 in assay [1] is greater than 10000 nM. The molecule further returned a half-maximal inhibitory concentration (IC50) in assay [2] of 74.7 nM.
In the same order, the values of `CC(C)Nc1cncc(-c2cc3c(-c4nc5c(-c6ccoc6)ccnc5[nH]4)n[nH]c3cn2)c1` [Compound 298, 5-(3-(7-(Furan-3-yl)-3H-imidazo[4,5-b]pyridin-2-yl)-1H-pyrazolo[3,4-c]pyridin-5-yl)-N-isopropylpyridin-3-amine] are 472 nM and 46.8 nM.
`CCCC(=O)Nc1cncc(-c2cc3c(-c4nc5c(-c6ccoc6)ccnc5[nH]4)n[nH]c3cn2)c1` [Compound 303, N-(5-(3-(7-(Furan-3-yl)-3H-imidazo[4,5-b]pyridin-2-yl)-1H-pyrazolo[3,4-c]pyridin-5-yl)pyridin-3-yl)butyramide]: the EC50 in assay [1] worked out at 20 nM. For the same molecule, in assay [2], the IC50 was found to be 78.8 nM.
On to `CCCCC(=O)Nc1cncc(-c2cc3c(-c4nc5c(-c6ccoc6)ccnc5[nH]4)n[nH]c3cn2)c1` [Compound 304, N-(5-(3-(7-(Furan-3-yl)-3H-imidazo[4,5-b]pyridin-2-yl)-1H-pyrazolo [3,4c]pyridin-5-yl)pyridin-3-yl)pentanamide], for which the EC50 in assay [1] was 3650 nM. The molecule further came in with an IC50 in assay [2] of 60.7 nM.
With `c1cc(-c2ccoc2)c2nc(-c3n[nH]c4cnc(-c5cncc(CNCC6CCCC6)c5)cc34)[nH]c2n1` [Compound 310, 1-Cyclopentyl-N-((5-(3-(7-(furan-3-yl)-3H-imidazo[4,5-b]pyridin-2-yl)-1H-pyrazolo[3,4-c]pyridin-5-yl)pyridin-3-yl)methyl)methanamine], the EC50 in assay [1] turned out to be 641 nM. This molecule came in with an IC50 in assay [2] of 243 nM.
For `CCC(=O)Nc1cncc(-c2cc3c(-c4nc5c(-c6cccs6)ccnc5[nH]4)n[nH]c3cn2)c1` [Compound 313] the same measures were 39 nM and 71.7 nM.
For `CN(C)c1cncc(-c2cc3c(-c4nc5c(-c6cccs6)ccnc5[nH]4)n[nH]c3cn2)c1` [Compound 319] the same measures were 75 nM and 125 nM.
In the same order, the values of `CC(C)(C)C(=O)Nc1cncc(-c2cc3c(-c4nc5c(-c6cccs6)ccnc5[nH]4)n[nH]c3cn2)c1` [Compound 320] are 25 nM and 42.6 nM.
Take `CC(C)Nc1cncc(-c2cc3c(-c4nc5c(-c6cccs6)ccnc5[nH]4)n[nH]c3cn2)c1` [Compound 324, N-Isopropyl-5-(3-(7-(thiophen-2-yl)-3H-imidazo[4,5-b]pyridin-2-yl)-1H-pyrazolo[3,4-c]pyridin-5-yl)pyridin-3-amine]: the EC50 in assay [1] was no less than 9990 nM. In assay [2], this molecule showed an IC50 of 58.5 nM.
Take `CN(C)Cc1cncc(-c2cc3c(-c4nc5c(-c6cccs6)ccnc5[nH]4)n[nH]c3cn2)c1` [Compound 325, N,N-Dimethyl-1-(5-(3-(7-(thiophen-2-yl)-3H-imidazo[4,5-b]pyridin-2-yl)-1H-pyrazolo[3,4-c]pyridin-5-yl)pyridin-3-yl)methanamine]: the EC50 in assay [1] came out at 254 nM. In assay [2], this molecule yielded an IC50 of 137 nM.
For `O=C(Nc1cncc(-c2cc3c(-c4nc5c(-c6cccs6)ccnc5[nH]4)n[nH]c3cn2)c1)C1CC1` [Compound 331] the same measures were 319 nM and 83.1 nM.
In the same order, the values of `FC1(F)CCN(Cc2cncc(-c3cc4c(-c5nc6c(-c7cccs7)ccnc6[nH]5)n[nH]c4cn3)c2)C1` [Compound 337] are 114 nM and 24.8 nM.
In the case of `CC(C)CC(=O)Nc1cncc(-c2cc3c(-c4nc5c(-c6ccc(F)s6)ccnc5[nH]4)n[nH]c3cn2)c1` [Compound 340, N -(5-(3-(7-(5-Fluorothiophen-2-yl)-3H-imidazo[4,5-b]pyridin-2-yl)-1H-pyrazolo[3,4-c]pyridin-5-yl)pyridin-3-yl)-3-methylbutanamide], the EC50 in assay [1] was 767 nM. This molecule displayed an IC50 in assay [2] of 27 nM.
For `Cc1ccc(-c2ccnc3[nH]c(-c4n[nH]c5cnc(-c6cncc(N)c6)cc45)nc23)s1` [Compound 367, 5-(3-(7-(5-Methylthiophen-2-yl)-3H-imidazo[4,5-b]pyridin-2-yl)-1H-pyrazolo[3,4-c]pyridin-5-yl)pyridin-3-amine] the same measures were no more than 9 nM and 22.6 nM.
Take `Cc1ccc(-c2ccnc3[nH]c(-c4n[nH]c5cnc(-c6cncc(NC(=O)C(C)(C)C)c6)cc45)nc23)s1` [Compound 372, N-(5-(3-(7-(5-Methylthiophen-2-yl)-3H-imidazo[4,5-b]pyridin-1)-1H-pyrazolo[3,4-c]pyridin-5-yl)pyridin-3-yl)pivalamide]: the EC50 in assay [1] was found to be 220 nM. This molecule returned a half-maximal inhibitory concentration (IC50) in assay [2] of 24.8 nM.
`Cc1ccc(-c2ccnc3[nH]c(-c4n[nH]c5cnc(-c6cncc(NC(=O)C(C)C)c6)cc45)nc23)s1` [Compound 373, N-(5-(3-(7-(5-Methylthiophen-2-yl)-3H-imidazo[4,5-b]pyridin-2-yl)-1H-pyrazolo[3,4-c]pyridin-5-yl)pyridin-3-yl)isobutyramide]: the concentration giving a half-maximal response (EC50) in assay [1] is no more than 9 nM. In assay [2], this molecule yielded an IC50 of 16.4 nM.
With `Cc1ccc(-c2ccnc3[nH]c(-c4n[nH]c5cnc(-c6cncc(NC(C)C)c6)cc45)nc23)s1` [Compound 376, N-Isopropyl-5-(3-(7-(5-methylthiophen-2-yl)-3H-imidazo[4,5-b]pyridin-2-yl)-1H-pyrazolo[3,4-c]pyridin-5-yl)pyridin-3-amine], in assay [1], the EC50 was no less than 9990 nM. Also, the IC50 in assay [2] turned out to be 10.6 nM.
For `Cc1ccc(-c2ccnc3[nH]c(-c4n[nH]c5cnc(-c6cncc(CN7CCCCC7)c6)cc45)nc23)s1` [Compound 379, 3-(7-(5-Methylthiophen-2-yl)-3H-imidazo[4,5-b]pyridin-2-yl)-5-(5-(piperidin-1-ylmethyl)pyridin-3-yl)-1H-pyrazolo[3,4-c]pyridine] the same measures were 299 nM and 180 nM.
For `Cc1ccc(-c2ccnc3[nH]c(-c4n[nH]c5cnc(-c6cncc(NC(=O)C7CCCC7)c6)cc45)nc23)s1` [Compound 385] the same measures were 106 nM and 84.4 nM.
`CC(=O)c1ccc(-c2ccnc3[nH]c(-c4n[nH]c5cnc(-c6cncc(NC(=O)CC(C)(C)C)c6)cc45)nc23)s1` [Compound 406, N-(5-(3-(7-(5-Acetylthiophen-2-yl)-3H-imidazo[4,5-b]pyridin-2-yl)-1H-pyrazolo[3,4-c]pyridin-5-yl)pyridin-3-yl)-3,3-dimethylbutanamide]: the EC50 in assay [1] was no less than 9990 nM. The molecule also showed an IC50 in assay [2] greater than 10000 nM.
Consider `CC(=O)c1ccc(-c2ccnc3[nH]c(-c4n[nH]c5cnc(-c6cncc(NC(=O)C7CCCCC7)c6)cc45)nc23)s1` [Compound 412, N-(5-(3-(7-(5-Acetylthiophen-2-yl)-3H-imidazo[4,5-b]pyridin-2-yl)-1H-pyrazolo[3,4-c]pyridin-5-yl)pyridin-3-yl)cyclohexanecarboxamide], for which, in assay [1], the EC50 is no less than 9990 nM. Besides, the IC50 in assay [2] is greater than 10000 nM.
For `CS(=O)(=O)NCc1cc(F)cc(-c2ccnc3[nH]c(-c4n[nH]c5cnc(-c6cncc(NC(=O)c7ccccc7)c6)cc45)nc23)c1` [Compound 427, N-(5-(3-(7-(3-Fluoro-5-(methylsulfonamidomethyl)phenyl)-3H-imidazo[4,5-b]pyridin-2-yl)-1H-pyrazolo[3,4-c]pyridin-5-yl)pyridin-3-yl)benzamide] the same measures were no less than 9990 nM and greater than 10000 nM.
